According to patent US11806317B2, “Composition capable of promoting testosterone secretion and use thereof” (TCI CO., LTD, priority 2017, dated 2023):

Tested on: mouse Leydig cells (TM3 cells, ATCC CRL1714)
Assay: Test of effects of plant extracts or combinations of components on testosterone secretion (testosterone ELISA of culture supernatant)
Type: cell-based
Conditions: 24 hours, control 100%
Description: 500 μl of the cell culture medium was added to each well of a 24-well plate to have 2×10^4 TM3 cells per well, and cultured at 37° C. for 24 hours. After the cells were adhered, the original medium was removed, and 500 μl of the aforementioned fresh cell culture medium was added.
The samples were then divided into two groups, of which group A was the control group, and no plant extracts or other test components were added. Group B was the test group. […] After that, the condition of the amount of testosterone secretion was analyzed. The doses shown in the tables are the doses of the single extract, or the combination of the extracts.
First, 50 μl of the supernatant of the culture medium after the reaction of each of the above groups was taken out, and the testosterone ELISA test kit (USCN, Cat# CEA458Ge) was used to detect the testosterone concentration. The detected values were then analyzed by Microsoft Excel software using Student's t-test to determine whether there is statistical significance between the two samples (* indicates p-value <0.05; ** indicates p-value <0.01; *** indicates p-value <0.001).

[1] = dose 0.125 mg/ml (single extract/component or 1:1 combination)
[2] = dose 0.25 mg/ml (single extract/component or 1:1 combination)

| Compound | Testosterone secretion relative to control (dose 0.03125 mg/ml (single extract/component or 1:1 combination)) [%] | Testosterone secretion relative to control [1] [%] | Testosterone secretion relative to control [2] [%] |
| --- | --- | --- | --- |
| CC1=C(/C=C/C(C)=C/C=C/C(C)=C/C=C/C=C(C)/C=C/C=C(C)/C=C/C2=C(C)CCCC2(C)C)C(C)(C)CCC1 [beta carotene] | 66.21 | 103.79 | 111.42 |
| CC(C)=CCC/C(C)=C/C=C/C(C)=C/C=C/C(C)=C/C=C/C=C(C)/C=C/C=C(C)/C=C/C=C(\C)CCC=C(C)C [lycopene] |  | 99.94 | 104.02 |
